# Laboratory results as given in patent US9603364B2 (Dow AgroSciences LLC, priority 2013, dated 2017).
# Columns and labels:
# Assay in all cases: General post-emergent herbicidal activity, foliar application
# Format in all cases: in vivo
# [1] = tested on: Amaranthus retroflexus L. (pigweed, redroot); details: for GR80 Value AMARE: calculated by probit analysis, dose for 80% visual injury, may be extrapolated
# Method in brief: (§1)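 Visual injury ratings on a scale of 0 (none) to 100% (complete kill), taken 14 days after foliar post-emergence treatment of greenhouse plants and compared with untreated plants, were fitted by probit analysis to give GR20, GR50 and GR80 doses; some GR80 values are extrapolated from the slope. Sprays contained crop oil concentrate and surfactant, with rates from the highest down to 1/16×.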
# [2] = tested on: Chenopodium album L. (lambsquarters, common); details: for GR80 Value CHEAL: calculated by probit analysis, dose for 80% visual injury, may be extrapolated
# Method in brief: as §1
# [3] = tested on: Echinochloa crus-galli (L.) Beauv. (barnyardgrass); details: for GR80 Value ECHCG: calculated by probit analysis, dose for 80% visual injury, may be extrapolated
# Method in brief: as §1
# [4] = tested on: Euphorbia heterophylla L. (poinsettia, wild); details: for GR80 Value EPHHL: calculated by probit analysis, dose for 80% visual injury, may be extrapolated
# Method in brief: as §1
# [5] = tested on: Helianthus annuus L. (sunflower, common); details: for GR80 Value HELAN: calculated by probit analysis, dose for 80% visual injury, may be extrapolated
# Method in brief: as §1
# [6] = tested on: Viola tricolor L. (pansy); details: for GR80 Value VIOTR: calculated by probit analysis, dose for 80% visual injury, may be extrapolated
# Method in brief: as §1
# Oryza sativa L. (rice) = details: Oryza sativa, 336 h, scored after 14 days, read-out: % Visual Growth Reduction ORYSA
# Method in brief: (§2)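 Compounds in acetone/DMSO (97:3) diluted into aqueous spray with isopropanol, Atplus 411F crop oil and Triton X-155; top rate plus 1/2×–1/16× serial rates applied to foliage, solvent blank as control. Greenhouse, sub-irrigated; visual injury versus untreated plants scored 0–100% (100 = complete kill) after 14 days.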
# Zea mays L. (corn) = details: 336 h, scored after 14 days, read-out: % Visual Growth Reduction ZEAMX
# Method in brief: as §2
compound,measurement,setting,value
"COC(=O)c1nc(CCF)cc(N)c1Cl [Compound F31, methyl 4-amino-3-chloro-6-(2-fluoroethyl)picolinate]",pest or weed control at 180 g/ha,"[1]; Amaranthus retroflexus, 336 h, 180 g ai/ha, foliar post-emergent, scored after 14 days, read-out: % Visual Growth Reduction AMARE",15%
same,GR80 Value AMARE,[1],<17.5 g ai/ha
same,pest or weed control at 180 g/ha,"[2]; Chenopodium album, 336 h, 180 g ai/ha, foliar post-emergent, scored after 14 days, read-out: % Visual Growth Reduction CHEAL",100%
same,GR80 Value CHEAL,[2],6.93 g ai/ha
same,pest or weed control at 180 g/ha,"[3]; Echinochloa crus-galli, 336 h, 180 g ai/ha, foliar post-emergent, scored after 14 days, read-out: % Visual Growth Reduction ECHCG",0%
same,GR80 Value ECHCG,[3],>180 g ai/ha
same,pest or weed control at 180 g/ha,"[4]; Euphorbia heterophylla, 336 h, 180 g ai/ha, foliar post-emergent, scored after 14 days, read-out: % Visual Growth Reduction EPHHL",45%
same,GR80 Value EPHHL,[4],<17.5 g ai/ha
same,pest or weed control at 180 g/ha,"[5]; Helianthus annuus, 336 h, 180 g ai/ha, foliar post-emergent, scored after 14 days, read-out: % Visual Growth Reduction HELAN",90%
same,GR80 Value HELAN,[5],42.4 g ai/ha
same,pest or weed control at 180 g/ha,"[6]; Viola tricolor, 336 h, 180 g ai/ha, foliar post-emergent, scored after 14 days, read-out: % Visual Growth Reduction VIOTR",100%
same,GR80 Value VIOTR,[6],74.4 g ai/ha
same,plant injury at 180 g/ha,Oryza sativa L. (rice); 180 g ai/ha,0%
same,plant injury at 180 g/ha,Zea mays L. (corn); 180 g ai/ha,0%
"COC(=O)c1nc(CCF)c(F)c(N)c1Cl [Compound F29, Methyl 4-amino-3-chloro-5-fluoro-6-(2-fluoroethyl)picolinate]",pest or weed control at 70 g/ha,"[1]; Amaranthus retroflexus, 336 h, 70 g ai/ha, foliar post-emergent, scored after 14 days, read-out: % Visual Growth Reduction AMARE",90%
same,pest or weed control at 140 g/ha,"[1]; Amaranthus retroflexus, 336 h, 140 g ai/ha, foliar post-emergent, scored after 14 days, read-out: % Visual Growth Reduction AMARE",100%
same,pest or weed control at 280 g/ha,"[1]; Amaranthus retroflexus, 336 h, 280 g ai/ha, foliar post-emergent, scored after 14 days, read-out: % Visual Growth Reduction AMARE",100%
same,GR80 Value AMARE,[1],55.1 g ai/ha
same,pest or weed control at 70 g/ha,"[2]; Chenopodium album, 336 h, 70 g ai/ha, foliar post-emergent, scored after 14 days, read-out: % Visual Growth Reduction CHEAL",90%
same,pest or weed control at 140 g/ha,"[2]; Chenopodium album, 336 h, 140 g ai/ha, foliar post-emergent, scored after 14 days, read-out: % Visual Growth Reduction CHEAL",90%
same,pest or weed control at 280 g/ha,"[2]; Chenopodium album, 336 h, 280 g ai/ha, foliar post-emergent, scored after 14 days, read-out: % Visual Growth Reduction CHEAL",90%
same,GR80 Value CHEAL,[2],<17.5 g ai/ha
same,pest or weed control at 70 g/ha,"[3]; Echinochloa crus-galli, 336 h, 70 g ai/ha, foliar post-emergent, scored after 14 days, read-out: % Visual Growth Reduction ECHCG",0%
same,pest or weed control at 140 g/ha,"[3]; Echinochloa crus-galli, 336 h, 140 g ai/ha, foliar post-emergent, scored after 14 days, read-out: % Visual Growth Reduction ECHCG",10%
same,pest or weed control at 280 g/ha,"[3]; Echinochloa crus-galli, 336 h, 280 g ai/ha, foliar post-emergent, scored after 14 days, read-out: % Visual Growth Reduction ECHCG",60%
same,GR80 Value ECHCG,[3],432 g ai/ha
same,pest or weed control at 70 g/ha,"[4]; Euphorbia heterophylla, 336 h, 70 g ai/ha, foliar post-emergent, scored after 14 days, read-out: % Visual Growth Reduction EPHHL",100%
same,pest or weed control at 140 g/ha,"[4]; Euphorbia heterophylla, 336 h, 140 g ai/ha, foliar post-emergent, scored after 14 days, read-out: % Visual Growth Reduction EPHHL",100%
same,pest or weed control at 280 g/ha,"[4]; Euphorbia heterophylla, 336 h, 280 g ai/ha, foliar post-emergent, scored after 14 days, read-out: % Visual Growth Reduction EPHHL",100%
same,GR80 Value EPHHL,[4],53.9 g ai/ha
same,pest or weed control at 70 g/ha,"[5]; Helianthus annuus, 336 h, 70 g ai/ha, foliar post-emergent, scored after 14 days, read-out: % Visual Growth Reduction HELAN",80%
same,pest or weed control at 140 g/ha,"[5]; Helianthus annuus, 336 h, 140 g ai/ha, foliar post-emergent, scored after 14 days, read-out: % Visual Growth Reduction HELAN",90%
same,pest or weed control at 280 g/ha,"[5]; Helianthus annuus, 336 h, 280 g ai/ha, foliar post-emergent, scored after 14 days, read-out: % Visual Growth Reduction HELAN",90%
same,GR80 Value HELAN,[5],60 g ai/ha
same,pest or weed control at 70 g/ha,"[6]; Viola tricolor, 336 h, 70 g ai/ha, foliar post-emergent, scored after 14 days, read-out: % Visual Growth Reduction VIOTR",10%
same,pest or weed control at 140 g/ha,"[6]; Viola tricolor, 336 h, 140 g ai/ha, foliar post-emergent, scored after 14 days, read-out: % Visual Growth Reduction VIOTR",70%
same,pest or weed control at 280 g/ha,"[6]; Viola tricolor, 336 h, 280 g ai/ha, foliar post-emergent, scored after 14 days, read-out: % Visual Growth Reduction VIOTR",90%
same,GR80 Value VIOTR,[6],203 g ai/ha
same,plant injury at 70 g/ha,Oryza sativa L. (rice); 70 g ai/ha,0%
same,plant injury at 140 g/ha,Oryza sativa L. (rice); 140 g ai/ha,0%
same,plant injury at 280 g/ha,Oryza sativa L. (rice); 280 g ai/ha,0%
same,plant injury at 70 g/ha,Zea mays L. (corn); 70 g ai/ha,0%
same,plant injury at 140 g/ha,Zea mays L. (corn); 140 g ai/ha,0%
same,plant injury at 280 g/ha,Zea mays L. (corn); 280 g ai/ha,0%
"COC(=O)c1nc(CF)cc(N)c1Cl [Compound F26, methyl 4-amino-3-chloro-6-(fluoromethyl)picolinate]",pest or weed control at 37 g/ha,"[1]; Amaranthus retroflexus, 336 h, 37 g ai/ha, foliar post-emergent, scored after 14 days, read-out: % Visual Growth Reduction AMARE",0%
same,pest or weed control at 74 g/ha,"[1]; Amaranthus retroflexus, 336 h, 74 g ai/ha, foliar post-emergent, scored after 14 days, read-out: % Visual Growth Reduction AMARE",80%
same,pest or weed control at 148 g/ha,"[1]; Amaranthus retroflexus, 336 h, 148 g ai/ha, foliar post-emergent, scored after 14 days, read-out: % Visual Growth Reduction AMARE",90%
same,GR80 Value AMARE,[1],104 g ai/ha
same,pest or weed control at 37 g/ha,"[2]; Chenopodium album, 336 h, 37 g ai/ha, foliar post-emergent, scored after 14 days, read-out: % Visual Growth Reduction CHEAL",90%
same,pest or weed control at 74 g/ha,"[2]; Chenopodium album, 336 h, 74 g ai/ha, foliar post-emergent, scored after 14 days, read-out: % Visual Growth Reduction CHEAL",90%
same,pest or weed control at 148 g/ha,"[2]; Chenopodium album, 336 h, 148 g ai/ha, foliar post-emergent, scored after 14 days, read-out: % Visual Growth Reduction CHEAL",90%
same,GR80 Value CHEAL,[2],29 g ai/ha
same,pest or weed control at 37 g/ha,"[3]; Echinochloa crus-galli, 336 h, 37 g ai/ha, foliar post-emergent, scored after 14 days, read-out: % Visual Growth Reduction ECHCG",0%
same,pest or weed control at 74 g/ha,"[3]; Echinochloa crus-galli, 336 h, 74 g ai/ha, foliar post-emergent, scored after 14 days, read-out: % Visual Growth Reduction ECHCG",0%
same,pest or weed control at 148 g/ha,"[3]; Echinochloa crus-galli, 336 h, 148 g ai/ha, foliar post-emergent, scored after 14 days, read-out: % Visual Growth Reduction ECHCG",20%
same,GR80 Value ECHCG,[3],>148 g ai/ha
same,pest or weed control at 37 g/ha,"[4]; Euphorbia heterophylla, 336 h, 37 g ai/ha, foliar post-emergent, scored after 14 days, read-out: % Visual Growth Reduction EPHHL",90%
same,pest or weed control at 74 g/ha,"[4]; Euphorbia heterophylla, 336 h, 74 g ai/ha, foliar post-emergent, scored after 14 days, read-out: % Visual Growth Reduction EPHHL",100%
same,pest or weed control at 148 g/ha,"[4]; Euphorbia heterophylla, 336 h, 148 g ai/ha, foliar post-emergent, scored after 14 days, read-out: % Visual Growth Reduction EPHHL",100%
same,GR80 Value EPHHL,[4],38.8 g ai/ha
same,pest or weed control at 37 g/ha,"[5]; Helianthus annuus, 336 h, 37 g ai/ha, foliar post-emergent, scored after 14 days, read-out: % Visual Growth Reduction HELAN",70%
same,pest or weed control at 74 g/ha,"[5]; Helianthus annuus, 336 h, 74 g ai/ha, foliar post-emergent, scored after 14 days, read-out: % Visual Growth Reduction HELAN",90%
same,pest or weed control at 148 g/ha,"[5]; Helianthus annuus, 336 h, 148 g ai/ha, foliar post-emergent, scored after 14 days, read-out: % Visual Growth Reduction HELAN",90%
same,GR80 Value HELAN,[5],48.3 g ai/ha
same,pest or weed control at 37 g/ha,"[6]; Viola tricolor, 336 h, 37 g ai/ha, foliar post-emergent, scored after 14 days, read-out: % Visual Growth Reduction VIOTR",10%
same,pest or weed control at 74 g/ha,"[6]; Viola tricolor, 336 h, 74 g ai/ha, foliar post-emergent, scored after 14 days, read-out: % Visual Growth Reduction VIOTR",15%
same,pest or weed control at 148 g/ha,"[6]; Viola tricolor, 336 h, 148 g ai/ha, foliar post-emergent, scored after 14 days, read-out: % Visual Growth Reduction VIOTR",70%
same,GR80 Value VIOTR,[6],223 g ai/ha
same,plant injury at 37 g/ha,Oryza sativa L. (rice); 37 g ai/ha,0%
same,plant injury at 74 g/ha,Oryza sativa L. (rice); 74 g ai/ha,0%
same,plant injury at 148 g/ha,Oryza sativa L. (rice); 148 g ai/ha,0%
same,plant injury at 37 g/ha,Zea mays L. (corn); 37 g ai/ha,0%
same,plant injury at 74 g/ha,Zea mays L. (corn); 74 g ai/ha,0%
same,plant injury at 148 g/ha,Zea mays L. (corn); 148 g ai/ha,10%
